Measurements published in patent US12570671B2 (BRISTOL-MYERS SQUIBB COMPANY, priority 2020, dated 2026).

What was measured:
[1] = target: Ikaros (Homo sapiens, UniProt Q13422+Q96SW2); test: Helios Cellular Degradation Assay (Ikaros readout); type: cell-based; design: endogenous in cells; host or cells: Jurkat; details: Jurkat cells, 72 h incubation, Ikaros-Alexa488 antibody staining, flow cytometry; read-out: Ikaros Jurkat IC50
Method in brief: (§1)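 Jurkat cells (80,000/well, RPMI+10% FBS) were treated with compound for 72 h at 37° C. After fixation and permeabilization they were stained with fluorescent antibodies to Helios, Ikaros and Aiolos. Intracellular protein levels were quantified by flow cytometry.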

[2] = target: Helios (Homo sapiens, UniProt Q96SW2+Q9UKS7); test: Helios Cellular Degradation Assay (Helios readout); type: cell-based; design: endogenous in cells; host or cells: Jurkat; details: Jurkat cells, 72 h incubation, Helios-PE antibody staining, flow cytometry; read-out: Helios Jurkat IC50
Method in brief: as §1

Ikaros, sequence (Q13422 whole entry): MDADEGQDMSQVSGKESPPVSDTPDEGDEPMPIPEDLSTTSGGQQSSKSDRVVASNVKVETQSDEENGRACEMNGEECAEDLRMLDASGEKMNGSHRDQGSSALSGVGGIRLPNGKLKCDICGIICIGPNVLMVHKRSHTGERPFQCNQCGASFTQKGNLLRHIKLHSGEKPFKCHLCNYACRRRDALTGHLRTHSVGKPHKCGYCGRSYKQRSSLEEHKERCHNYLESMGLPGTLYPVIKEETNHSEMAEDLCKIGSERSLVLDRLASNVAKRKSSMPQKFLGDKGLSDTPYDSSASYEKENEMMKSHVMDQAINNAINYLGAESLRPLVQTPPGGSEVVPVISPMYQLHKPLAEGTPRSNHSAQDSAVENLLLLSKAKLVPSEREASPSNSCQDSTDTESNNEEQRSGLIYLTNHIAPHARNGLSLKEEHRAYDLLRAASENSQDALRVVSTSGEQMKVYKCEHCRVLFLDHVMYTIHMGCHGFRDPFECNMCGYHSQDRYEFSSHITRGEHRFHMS
Ikaros, sequence (Q96SW2 whole entry): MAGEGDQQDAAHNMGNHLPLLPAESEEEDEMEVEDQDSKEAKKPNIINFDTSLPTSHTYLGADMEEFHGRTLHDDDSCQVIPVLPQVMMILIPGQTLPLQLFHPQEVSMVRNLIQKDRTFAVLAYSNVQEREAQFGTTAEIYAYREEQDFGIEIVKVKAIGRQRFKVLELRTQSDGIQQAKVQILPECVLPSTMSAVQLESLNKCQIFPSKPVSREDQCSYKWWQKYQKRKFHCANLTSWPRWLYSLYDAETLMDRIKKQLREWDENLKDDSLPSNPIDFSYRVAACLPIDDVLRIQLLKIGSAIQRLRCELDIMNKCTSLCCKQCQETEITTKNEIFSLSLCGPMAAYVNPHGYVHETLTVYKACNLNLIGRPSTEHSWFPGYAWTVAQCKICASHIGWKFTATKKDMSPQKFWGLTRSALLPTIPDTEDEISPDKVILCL
Ikaros, sequence (Q16531 whole entry partner): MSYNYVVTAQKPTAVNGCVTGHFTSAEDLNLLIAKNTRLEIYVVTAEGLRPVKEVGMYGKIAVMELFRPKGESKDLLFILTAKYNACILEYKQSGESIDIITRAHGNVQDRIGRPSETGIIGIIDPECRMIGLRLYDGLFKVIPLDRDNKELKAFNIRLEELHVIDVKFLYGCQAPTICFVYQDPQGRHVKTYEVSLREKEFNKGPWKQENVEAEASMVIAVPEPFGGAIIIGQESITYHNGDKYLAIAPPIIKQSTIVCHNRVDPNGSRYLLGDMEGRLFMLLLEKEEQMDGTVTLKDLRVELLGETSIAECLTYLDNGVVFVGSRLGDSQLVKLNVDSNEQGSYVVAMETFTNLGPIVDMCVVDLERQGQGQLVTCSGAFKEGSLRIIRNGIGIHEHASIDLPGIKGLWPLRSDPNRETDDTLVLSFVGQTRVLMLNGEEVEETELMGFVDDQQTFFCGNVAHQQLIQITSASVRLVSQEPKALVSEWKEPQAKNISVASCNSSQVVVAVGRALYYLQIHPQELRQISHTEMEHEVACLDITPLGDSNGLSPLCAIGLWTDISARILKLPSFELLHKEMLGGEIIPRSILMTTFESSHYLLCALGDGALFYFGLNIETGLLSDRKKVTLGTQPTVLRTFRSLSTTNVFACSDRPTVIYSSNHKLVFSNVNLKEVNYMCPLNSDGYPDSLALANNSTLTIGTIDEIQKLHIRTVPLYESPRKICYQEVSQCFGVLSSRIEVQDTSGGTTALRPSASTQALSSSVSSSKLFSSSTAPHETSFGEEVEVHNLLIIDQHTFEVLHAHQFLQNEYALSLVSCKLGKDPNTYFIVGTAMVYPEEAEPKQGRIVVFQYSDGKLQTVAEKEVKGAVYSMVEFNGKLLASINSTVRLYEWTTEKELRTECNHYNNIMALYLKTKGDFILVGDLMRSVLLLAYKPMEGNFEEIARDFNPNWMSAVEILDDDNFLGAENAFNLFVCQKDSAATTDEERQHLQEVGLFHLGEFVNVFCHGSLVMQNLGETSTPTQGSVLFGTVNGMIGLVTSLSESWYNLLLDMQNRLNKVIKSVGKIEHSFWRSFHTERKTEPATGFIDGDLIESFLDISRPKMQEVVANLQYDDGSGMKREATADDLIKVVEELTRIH
Helios, sequence (Q9UKS7 whole entry): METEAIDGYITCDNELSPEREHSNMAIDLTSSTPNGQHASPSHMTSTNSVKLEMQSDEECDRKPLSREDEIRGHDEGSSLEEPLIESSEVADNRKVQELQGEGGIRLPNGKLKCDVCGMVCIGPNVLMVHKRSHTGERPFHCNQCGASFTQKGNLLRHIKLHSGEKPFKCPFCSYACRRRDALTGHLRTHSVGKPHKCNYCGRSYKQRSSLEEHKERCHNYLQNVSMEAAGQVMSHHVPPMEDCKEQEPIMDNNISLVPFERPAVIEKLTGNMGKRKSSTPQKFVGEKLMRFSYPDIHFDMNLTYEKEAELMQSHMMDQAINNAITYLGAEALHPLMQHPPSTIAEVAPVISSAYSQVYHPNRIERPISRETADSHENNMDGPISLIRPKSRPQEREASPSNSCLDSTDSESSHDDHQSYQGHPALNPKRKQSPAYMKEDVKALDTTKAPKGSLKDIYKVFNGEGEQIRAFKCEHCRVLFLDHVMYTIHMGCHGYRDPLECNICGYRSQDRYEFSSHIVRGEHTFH
Helios, sequence (Q96SW2 whole entry): as the sequence (Q96SW2 whole entry) above
Helios, sequence (Q16531 whole entry partner): as the sequence (Q16531 whole entry partner) above

Row | DC50 [1] [nM] | DC50 [2] [nM] | Structure (SMILES)
1 | ≥ 20000 | 20 | Nc1ccc(C2CC2)c(-c2ccc3c(c2)CN(C2CCC(=O)NC2=O)C3=O)n1 (stereo not shown) [Example 132, 3-[5-(6-amino-3-cyclopropylpyridin-2-yl)-1-oxo-2,3-dihydro-1H-isoindol-2-yl]piperidine-2,6-dione]
2 | > 20000 | 53 | O=C1CCC(N2Cc3cc(-c4ncc5cc(F)ccc5n4)ccc3C2=O)C(=O)N1 (stereo not shown) [Example 35, 3-[5-(6-fluoroquinazolin-2-yl)-1-oxo-2,3-dihydro-1H-isoindol-2-yl]piperidine-2,6-dione]
3 | ≥ 20000 | 100 | O=C1CCC(N2Cc3cc(-c4cc5c(cn4)OCCN5)ccc3C2=O)C(=O)N1 (stereo not shown) [Example 87, 3-(5-(2,3-dihydro-1H-pyrido[3,4-b][1,4]oxazin-7-yl)-1-oxoisoindolin-2-yl)piperidine-2,6-dione]
4 | > 20000 | 11 | CNc1nc(-c2ccc3c(c2)CN(C2CCC(=O)NC2=O)C3=O)cc2ccccc12 (stereo not shown) [Example 50, 3-{5-[1-(Methylamino)isoquinolin-3-yl]-1-oxo-2,3-dihydro-1H-isoindol-2-yl}piperidine-2,6-dione]
5 | > 20000 | 57 | O=C1CCC(N2Cc3cc(-c4ccc5ccc(Cl)cc5n4)ccc3C2=O)C(=O)N1 (stereo not shown) [Example 28, 3-[5-(7-chloroquinolin-2-yl)-1-oxo-2,3-dihydro-1H-isoindol-2-yl]piperidine-2,6-dione]
6 | ≥ 10000 | 610 | O=C1CCC(N2Cc3cc(-c4ccccn4)ccc3C2=O)C(=O)N1 (stereo not shown) [Example 109, 3-(1-oxo-5-(pyridin-2-yl)isoindolin-2-yl) piperidine-2,6-dione]
7 | ≥ 10000 | 420 | Nc1cc(CO)cc(-c2ccc3c(c2)CN(C2CCC(=O)NC2=O)C3=O)n1 (stereo not shown) [Example 112, 3-(5-(6-amino-4-(hydroxymethyl)pyridin-2-yl)-1-oxoisoindolin-2-yl)piperidine-2,6-dione]
8 | > 20000 | 25 | O=C1CCC(N2Cc3cc(-c4ccc5cc(Cl)ccc5n4)ccc3C2=O)C(=O)N1 (stereo not shown) [Example 27, 3-[5-(6-chloroquinolin-2-yl)-1-oxo-2,3-dihydro-1H-isoindol-2-yl]piperidine-2,6-dione]
9 | ≥ 20000 | 7460 | CC(=O)O[C@H]1CCOc2nc(-c3ccc4c(c3)CN([C@H]3CCC(=O)NC3=O)C4=O)ccc21 [Example 127, (4S)-7-{2-[(3S)-2,6-dioxopiperidin-3-yl]-1-oxo-2,3-dihydro-1H-isoindol-5-yl}-2H,3H,4H-pyrano[2,3-b]pyridin-4-yl acetate]
10 | > 20000 | 110 | O=C1CCC(N2Cc3cc(-c4nc5ccccc5cc4Cl)ccc3C2=O)C(=O)N1 (stereo not shown) [Example 36, 3-[5-(3-chloroquinolin-2-yl)-1-oxo-2,3-dihydro-1H-isoindol-2-yl]piperidine-2,6-dione]
11 | ≥ 10000 | 140 | COc1cc(C#N)c(N)nc1-c1ccc2c(c1)CN(C1CCC(=O)NC1=O)C2=O (stereo not shown) [Example 181, 2-amino-6-(2-(2,6-dioxopiperidin-3-yl)-1-oxoisoindolin-5-yl)-5-methoxynicotinonitrile]
12 | ≥ 10000 | 240 | Cc1cc(-c2ccc3c(c2)CN(C2CCC(=O)NC2=O)C3=O)nc(C)c1N (stereo not shown) [Example 119, 3-(5-(5-amino-4,6-dimethylpyridin-2-yl)-1-oxoisoindolin-2-yl)piperidine-2,6-dione]
13 | > 20000 | 750 | O=C1CCC(N2Cc3cc(-c4cc(-c5ccccc5)c5ccccc5n4)ccc3C2=O)C(=O)N1 (stereo not shown) [Example 13, 3-[1-oxo-5-(4-phenylquinolin-2-yl)-2,3-dihydro-1H-isoindol-2-yl]piperidine-2,6-dione]
14 | ≥ 10000 | 150 | Nc1ccc(-c2ccc3c(c2)CN(C2CCC(=O)NC2=O)C3=O)nc1N (stereo not shown) [Example 117, 3-(5-(5,6-diaminopyridin-2-yl)-1-oxoisoindolin-2-yl)piperidine-2,6-dione]
15 | ≥ 10000 | 70 | N#Cc1cc(C2CC2)c(N)nc1-c1ccc2c(c1)CN(C1CCC(=O)NC1=O)C2=O (stereo not shown) [Example 182, 6-amino-5-cyclopropyl-2-(2-(2,6-dioxopiperidin-3-yl)-1-oxoisoindolin-5-yl) nicotinonitrile]
16 | > 20000 | 2800 | NC(=O)c1ccc(-c2ccc3c(c2)CN(C2CCC(=O)NC2=O)C3=O)nn1 (stereo not shown) [Example 78, 6-[2-(2,6-dioxopiperidin-3-yl)-1-oxo-2,3-dihydro-1H-isoindol-5-yl]pyridazine-3-carboxamide]
17 | ≥ 10000 | ≥ 10000 | CC(C)c1cc(N)nc(-c2ccc3c(c2)CN(C2CCC(=O)NC2=O)C3=O)c1C#N (stereo not shown) [Example 179, 6-amino-2-(2-(2,6-dioxopiperidin-3-yl)-1-oxoisoindolin-5-yl)-4-isopropylnicotinonitrile]
18 | ≥ 20000 | 80 | O=C1CCC(N2Cc3cc(-c4ccc5c(n4)NCCO5)ccc3C2=O)C(=O)N1 (stereo not shown) [Example 141, 3-(5-(3,4-dihydro-2H-pyrido[3,2-b][1,4]oxazin-6-yl)-1-oxoisoindolin-2-yl)piperidine-2,6-dione]

Row | DC50 [1] [nM] | DC50 [2] [nM] | Structure (SMILES)
19 | ≥ 10000 | 930 | N#CCc1ccnc(-c2ccc3c(c2)CN(C2CCC(=O)NC2=O)C3=O)c1 (stereo not shown) [Example 111, 2-(2-(2-(2,6-dioxopiperidin-3-yl)-1-oxoisoindolin-5-yl)pyridin-4-yl)acetonitrile]
20 | ≥ 20000 | 210 | O=C1CCC(N2Cc3cc(-c4ncnc5ccccc45)ccc3C2=O)C(=O)N1 (stereo not shown) [Example 91, 3-(1-oxo-5-(quinazolin-4-yl)isoindolin-2-yl)piperidine-2,6-dione]
21 | ≥ 10000 | 920 | CN(C)Nc1cccc(-c2ccc3c(c2)CN(C2CCC(=O)NC2=O)C3=O)n1 (stereo not shown) [Example 138, 3-{5-[6-(2,2-dimethylhydrazin-1-yl)pyridin-2-yl]-1-oxo-2,3-dihydro-1H-isoindol-2-yl}piperidine-2,6-dione]
22 | > 20000 | 100 | CCC(C)Nc1nc2ccc(-c3ccc4c(c3)CN(C3CCC(=O)NC3=O)C4=O)nc2s1 (stereo not shown) [Example 10, 3-(5-{2-[(butan-2-yl)amino]-[1,3]thiazolo[5,4-b]pyridin-5-yl}-1-oxo-2,3-dihydro-1H-isoindol-2-yl)piperidine-2,6-dione]
23 | ≥ 20000 | 20 | Cc1nc(-c2ccc3c(c2)CN(C2CCC(=O)NC2=O)C3=O)cc2ccccc12 (stereo not shown) [Example 88, 3-(5-(1-methylisoquinolin-3-yl)-1-oxoisoindolin-2-yl)piperidine-2,6-dione]
24 | ≥ 20000 | 130 | COc1cccnc1-c1ccc2c(c1)CN(C1CCC(=O)NC1=O)C2=O (stereo not shown) [Example 104, 3-(5-(3-methoxypyridin-2-yl)-1-oxoisoindolin-2-yl)piperidine-2,6-dione]
25 | ≥ 20000 | 1070 | COc1nc2ccccc2nc1-c1ccc2c(c1)CN(C1CCC(=O)NC1=O)C2=O (stereo not shown) [Example 94, 3-(5-(3-methoxyquinoxalin-2-yl)-1-oxoisoindolin-2-yl)piperidine-2,6-dione]
26 | > 20000 | 98 | O=C1CCC(N2Cc3cc(-c4cnc5cc(F)ccc5n4)ccc3C2=O)C(=O)N1 (stereo not shown) [Example 26, 3-[5-(6-fluoroquinoxalin-2-yl)-1-oxo-2,3-dihydro-1H-isoindol-2-yl]piperidine-2,6-dione]
27 | 190 | 50 | CCOc1c(-c2ccc3c(c2)CN(C2CCC(=O)NC2=O)C3=O)nc(Cl)c2ccccc12 (stereo not shown) [Example 86, 3-(5-(1-chloro-4-ethoxyisoquinolin-3-yl)-1-oxoisoindolin-2-yl)piperidine-2,6-dione]
28 | 34 | 20 | O=C1CCC(N2Cc3cc(-c4nccc5c(F)cccc45)ccc3C2=O)C(=O)N1 (stereo not shown) [Example 20, 3-[5-(5-fluoroisoquinolin-1-yl)-1-oxo-2,3-dihydro-1H-isoindol-2-yl]piperidine-2,6-dione]
29 | ≥ 20000 | 50 | O=C1CC[C@H](N2Cc3cc(-c4ccc5cccnc5n4)ccc3C2=O)C(=O)N1 [Example 122, (3S)-3-[5-(1,8-naphthyridin-2-yl)-1-oxo-2,3-dihydro-1H-isoindol-2-yl]piperidine-2,6-dione]
30 | ≥ 20000 | 860 | CC(C)c1nc2ccccc2nc1-c1ccc2c(c1)CN(C1CCC(=O)NC1=O)C2=O (stereo not shown) [Example 98, 3-(5-(3-isopropylquinoxalin-2-yl)-1-oxoisoindolin-2-yl)piperidine-2,6-dione]
31 | 25 | 6 | O=C1CCC(N2Cc3cc(-c4nccc5ccccc45)ccc3C2=O)C(=O)N1 (stereo not shown) [Example 66, 3-[5-(isoquinolin-1-yl)-1-oxo-2,3-dihydro-1H-isoindol-2-yl]piperidine-2,6-dione]
32 | ≥ 10000 | 310 | Cc1cc(O)nc(-c2ccc3c(c2)CN(C2CCC(=O)NC2=O)C3=O)c1 (stereo not shown) [Example 147, 3-(5-(6-hydroxy-4-methylpyridin-2-yl)-1-oxoisoindolin-2-yl)piperidine-2,6-dione]
33 | 140 | 30 | O=C1CCC(N2Cc3cc(-c4nccc5ccc(F)cc45)ccc3C2=O)C(=O)N1 (stereo not shown) [Example 19, 3-[5-(7-fluoroisoquinolin-1-yl)-1-oxo-2,3-dihydro-1H-isoindol-2-yl]piperidine-2,6-dione]
34 | > 20000 | 320 | N#Cc1cnc(-c2ccc3c(c2)CN(C2CCC(=O)NC2=O)C3=O)nc1N (stereo not shown) [Example 80, 4-Amino-2-[2-(2,6-dioxopiperidin-3-yl)-1-oxo-2,3-dihydro-1H-isoindol-5-yl]pyrimidine-5-carbonitrile]
35 | ≥ 20000 | 2 | Nc1ccc2cnc(-c3ccc4c(c3)CN(C3CCC(=O)NC3=O)C4=O)cc2c1 (stereo not shown) [Example 102, 3-(5-(6-aminoisoquinolin-3-yl)-1-oxoisoindolin-2-yl)piperidine-2,6-dione]
